Converted amounts (≈) assume the structure as drawn.
Assays:
Experiment in all cases: microbe, parasite or virus in culture
[1] = test system: E. coli TG1; type: cell-based; settings: Escherichia coli, β-lactamase inhibitor alone
Method in brief: (§1)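 OXA-48, with or without CTX-M-14, was cloned into E. coli HB4, a low-permeability strain, and TG1 transformants were also used. Each compound was tested alone, then each inhibitor at 4 mg/L with ertapenem or ceftazidime. MICs were read in triplicate against EUCAST 13.0 breakpoints.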

[2] = test system: E. coli HB4 ΔompC/F; type: cell-based, Escherichia coli; settings: Escherichia coli
Method in brief: as §1

[3] = test system: E. coli HB4 ΔompC/F (CTX-M-14); type: cell-based, Escherichia coli; settings: Escherichia coli
[4] = test system: E. coli HB4 ΔompC/F (CTX-M-14 + OXA-48); type: cell-based, Escherichia coli
Method in brief: as §1

[5] = test system: K. pneumoniae strain 497 (MLST 11, No ESBL); type: cell-based; settings: Klebsiella pneumoniae; K. pneumoniae 497; β-lactamase inhibitor alone; read-out: MIC
[6] = test system: K. pneumoniae strain 23 (MLST 392, ESBL); type: cell-based; settings: Klebsiella pneumoniae
Method in brief: (§2)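 MICs in triplicate against OXA-48-positive Enterobacterales clinical isolates, interpreted by EUCAST 13.0 breakpoints. Inhibitors at 4 mg/L combined with ertapenem or ceftazidime as reporter substrates; MICs of each compound alone also determined.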

[7] = test system: E. coli strain 264 (MLST 131, No ESBL); type: cell-based; settings: Escherichia coli; E. coli 264; β-lactamase inhibitor alone; read-out: MIC
Method in brief: as §2

[8] = test system: K. pneumoniae strain 238 (MLST 15, ESBL); type: cell-based; settings: Klebsiella pneumoniae
Method in brief: as §2

[9] = test system: E. coli strain 103 (MLST 10, ESBL); type: cell-based; settings: Escherichia coli
Method in brief: as §2

[10] = test system: K. pneumoniae strain 194 (MLST 392, No ESBL); type: cell-based; settings: Klebsiella pneumoniae; K. pneumoniae 194; β-lactamase inhibitor alone; read-out: MIC
Method in brief: as §2

[11] = test system: K. pneumoniae strain 237 (MLST 147, No ESBL); type: cell-based; settings: Klebsiella pneumoniae; K. pneumoniae 237; β-lactamase inhibitor alone; read-out: MIC
Method in brief: as §2

[12] = test system: E. coli strain 224 (MLST 127, No ESBL); type: cell-based; settings: Escherichia coli; E. coli 224; β-lactamase inhibitor alone; read-out: MIC
Method in brief: as §2

[13] = test system: E. cloacae strain 281 (MLST 78, No ESBL); type: cell-based; settings: Enterobacter cloacae; E. cloacae 281; β-lactamase inhibitor alone; read-out: MIC
Method in brief: as §2

[14] = test system: K. pneumoniae strain 19 (MLST 11, ESBL); type: cell-based; settings: Klebsiella pneumoniae
Method in brief: as §2

[15] = test system: K. pneumoniae strain 71 (MLST 15, No ESBL); type: cell-based; settings: Klebsiella pneumoniae; K. pneumoniae 71; β-lactamase inhibitor alone; read-out: MIC
Method in brief: as §2

[16] = test system: E. cloacae strain 231 (MLST 171, No ESBL); type: cell-based; settings: Enterobacter cloacae; E. cloacae 231; β-lactamase inhibitor alone; read-out: MIC
Method in brief: as §2

[17] = test system: K. pneumoniae strain 413 (MLST 147, ESBL); type: cell-based; settings: Klebsiella pneumoniae
Method in brief: as §2

[18] = test system: E. cloacae strain 235 (MLST 171, ESBL); type: cell-based; settings: Enterobacter cloacae
Method in brief: as §2

[19] = test system: E. coli strain 177 (MLST 131, ESBL); type: cell-based; settings: Escherichia coli
Method in brief: as §2

[20] = test system: K. pneumoniae strain 125 (MLST 307, ESBL); type: cell-based; settings: Klebsiella pneumoniae
Method in brief: as §2

[21] = test system: E. cloacae strain 272 (MLST 78, ESBL); type: cell-based; settings: Enterobacter cloacae
Method in brief: as §2

[22] = test system: K. pneumoniae strain 170 (MLST 307, No ESBL); type: cell-based; settings: Klebsiella pneumoniae; K. pneumoniae 170; β-lactamase inhibitor alone; read-out: MIC
Method in brief: as §2

Q: `O=C(O)c1c(F)ccc2c1OB(O)[C@@H]1C[C@H]21` [Xeruborbactam, xeruborbactam] was tested. Which MIC [1] did it give?
A: 32 µg/mL (≈ 144 µM)

Q: And the MIC [2]?
A: 16 µg/mL (≈ 72.1 µM)

Q: And the MIC [3]?
A: 16 µg/mL (≈ 72.1 µM)

Q: What about the “decrease of ertapenem MIC with BLI” value ([4]; E. coli HB4 coproducing CTX-M-14 and OXA-48, BLI 4 mg/L) of the same molecule?
A: 256 fold

Q: What about the MIC ([4]; Escherichia coli) of the same molecule?
A: 16 µg/mL (≈ 72.1 µM)

Q: And the MIC [5]?
A: 64 µg/mL

Q: What about the MIC [6] of the same molecule?
A: 32 µg/mL

Q: And the MIC [7]?
A: 32 µg/mL

Q: What about the MIC [8] of the same molecule?
A: 64 µg/mL

Q: What about the MIC [9] of the same molecule?
A: 64 µg/mL

Q: And the MIC [10]?
A: 32 µg/mL

Q: What about the MIC [11] of the same molecule?
A: 64 µg/mL

Q: What about the MIC [12] of the same molecule?
A: 32 µg/mL

Q: What about the MIC [13] of the same molecule?
A: 32 µg/mL

Q: What about the MIC [14] of the same molecule?
A: 32 µg/mL

Q: What about the MIC [15] of the same molecule?
A: 32 µg/mL

Q: And the MIC [16]?
A: 32 µg/mL

Q: What about the MIC [17] of the same molecule?
A: 64 µg/mL

Q: And the MIC [18]?
A: ≥ 128 µg/mL

Q: And the MIC [19]?
A: 64 µg/mL

Q: What about the MIC [20] of the same molecule?
A: 32 µg/mL

Q: What about the MIC [21] of the same molecule?
A: 32 µg/mL

Q: What about the MIC [22] of the same molecule?
A: 32 µg/mL

From publication PMC11823609, “Advancements in the fight against globally distributed OXA-48 carbapenemase: evaluating the new generation of carbapenemase inhibitors” (Antimicrobial Agents and Chemotherapy, 2025)
